# Results from patent US20110045593A1, “Transgenically mitigating the establishment and spread of transgenic algae in natural ecosystems by suppressing the activity of carbonic anhydrase” (priority 2009, published 2011).
# Legend:
# [1] = system: Nannochloropsis oculata CS-179; assay: Photosynthetic carbon dioxide fixation measured as oxygen evolution with an oxygen electrode, carbonic anhydrase suppressed by inhibitor; format: cell-based; conditions: 300 μM, incubated just prior to measurement
# Experimental: Cultures were incubated with ethoxyzolamide just prior to measurement.
# Measurements of O2 concentrations are performed using a Clark type O2 electrode (Pasco Scientific, Roseville, Calif., USA). 20 ml of cell suspension corresponding to 15 μg chlorophyll/ml are placed in the O2 electrode chamber, at relevant temperature. Cells are exposed to various light intensities and net O2 production is measured. Dark incubations are performed in air-tight vessels to follow light-independent O2 consumption.
# [2] = system: non-transgenic algal or cyanobacterial cells; assay: In vivo pds assay: culture in fluorochloridone solution; format: cell-based; conditions: 0.1 μM in standard algae or cyanobacteria culture media
# Experimental: In vivo pds assay. Putative transformed algal or cyanobacterial cells were cultured in a solution of 0.1 μM fluorochloridone in standard algae or cyanobacteria culture media.
Structure (SMILES),photosynthetic carbon dioxide fixation (measured as oxygen evolution) ([1]; high CO2 concentration (FIG. 1A; more than 2%)),"photosynthetic carbon dioxide fixation (measured as oxygen evolution) ([1]; high CO2 concentration (FIG. 1A; more than 2%), listed as inhibitor)",photosynthetic carbon dioxide fixation (measured as oxygen evolution) ([1]; low CO2 concentration (FIG. 1B)),"photosynthetic carbon dioxide fixation (measured as oxygen evolution) ([1]; low CO2 concentration (FIG. 1B), listed as inhibitor)",killing of non-transgenic cells [2]
"CCOc1ccc2nc(S(N)(=O)=O)sc2c1 [ethoxyzolamide, 6-ethoxy-2-benzothiazolesulfonamide]",no effect,no difference in photosynthesis,decreases photosynthetic carbon dioxide fixation,severely deficient in photosynthesis,–
O=C1C(Cl)C(CCl)CN1c1cccc(C(F)(F)F)c1 (centres unmarked) [fluorochloridone],–,–,–,–,all non-transgenic cells are killed
